Assay results as given in PubChem BioAssay AID1963847 (Molecular Pharmacology Branch, DTP, NCI, 2024).

Test system: 415267-285-R-J2-PDC complex spheroid viability
Experiment: Anticancer human tumor 415267-285-R-J2-PDC patient-derived breast carcinoma cell line growth inhibition [POLQ]
Conditions: for IC50: curve of first compound; for viability, T/C: stronger effect = lower value
Procedure, shortened: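 PDC + HUVEC + MSC complex spheroids; POLQ inhibitors ± partner drugs; top conc. at/near clinical Cmax, else 10 microM (SN-38 1 microM), half-log dilutions; 37 degrees C, 5% CO2.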

[1] = second compound 0.0316 µM, first compound 0.0316 µM
[2] = second compound 0.0316 µM, first compound 0.1 µM
[3] = second compound 0.0316 µM, first compound 0.316 µM
[4] = second compound 0.0316 µM, first compound 1 µM
[5] = second compound 0.1 µM, first compound 0.0316 µM
[6] = second compound 0.1 µM, first compound 0.1 µM
[7] = second compound 0.1 µM, first compound 0.316 µM
[8] = second compound 0.1 µM, first compound 1 µM
[9] = second compound 0.316 µM, first compound 0.0316 µM
[10] = second compound 0.316 µM, first compound 0.1 µM
[11] = second compound 0.316 µM, first compound 0.316 µM
[12] = second compound 0.316 µM, first compound 1 µM
[13] = second compound 1 µM, first compound 0.0316 µM
[14] = second compound 1 µM, first compound 0.1 µM
[15] = second compound 1 µM, first compound 0.316 µM
[16] = second compound 1 µM, first compound 1 µM
[17] = second compound 3.16 µM, first compound 0.0316 µM
[18] = second compound 3.16 µM, first compound 0.1 µM
[19] = second compound 3.16 µM, first compound 0.316 µM
[20] = second compound 3.16 µM, first compound 1 µM
[21] = second compound 10 µM, first compound 0.0316 µM
[22] = second compound 10 µM, first compound 0.1 µM
[23] = second compound 10 µM, first compound 0.316 µM
[24] = second compound 10 µM, first compound 1 µM
[25] = second compound 0.0316 µM, first compound 3.16 µM
[26] = second compound 0.0316 µM, first compound 10 µM
[27] = second compound 0.1 µM, first compound 3.16 µM
[28] = second compound 0.1 µM, first compound 10 µM
[29] = second compound 0.316 µM, first compound 3.16 µM
[30] = second compound 0.316 µM, first compound 10 µM
[31] = second compound 1 µM, first compound 3.16 µM
[32] = second compound 1 µM, first compound 10 µM
[33] = second compound 3.16 µM, first compound 3.16 µM
[34] = second compound 3.16 µM, first compound 10 µM
[35] = second compound 10 µM, first compound 3.16 µM
[36] = second compound 10 µM, first compound 10 µM
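Further: spheroids exposed to compounds for one week before readout.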
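Wherever viability, T/C is given: luminescence used as stand-in measure of viable cells; 100% = DMSO vehicle control viability.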

SMILES: CCc1c2c(nc3ccc(O)cc13)-c1cc3c(c(=O)n1C2)COC(=O)[C@]3(O)CC + Nc1ccc(C#CCN(C(=O)Cc2ncc(C(F)(F)F)cc2C(F)(F)F)c2ccc(F)cc2)nn1
- IC50 (second compound 0.0316 µM): 3.71 nM
- IC50 (second compound 0.1 µM): 4.23 nM
- IC50 (second compound 0.316 µM): 3.49 nM
- IC50 (second compound 1 µM): < 3.16 nM
- IC50 (second compound 3.16 µM): < 3.16 nM
- IC50 (second compound 10 µM): < 3.16 nM
- viability, T/C (second compound 0.0316 µM, first compound 0.00316 µM): 56.2%
- viability, T/C (second compound 0.0316 µM, first compound 0.01 µM): 12.2%
- viability, T/C [1]: 4.64%
- viability, T/C [2]: 3.13%
- viability, T/C [3]: 1.82%
- viability, T/C [4]: 1.11%
- viability, T/C (second compound 0.1 µM, first compound 0.00316 µM): 63.5%
- viability, T/C (second compound 0.1 µM, first compound 0.01 µM): 10.5%
- viability, T/C [5]: 4.81%
- viability, T/C [6]: 3.2%
- viability, T/C [7]: 2.14%
- viability, T/C [8]: 1.01%
- viability, T/C (second compound 0.316 µM, first compound 0.00316 µM): 53.6%
- viability, T/C (second compound 0.316 µM, first compound 0.01 µM): 11.3%
- viability, T/C [9]: 4.02%
- viability, T/C [10]: 2.64%
- viability, T/C [11]: 2.39%
- viability, T/C [12]: 1.12%
- viability, T/C (second compound 1 µM, first compound 0.00316 µM): 46.9%
- viability, T/C (second compound 1 µM, first compound 0.01 µM): 9.28%
- viability, T/C [13]: 4.2%
- viability, T/C [14]: 3.14%
- viability, T/C [15]: 2.27%
- viability, T/C [16]: 0.96%
- viability, T/C (second compound 3.16 µM, first compound 0.00316 µM): 42.7%
- viability, T/C (second compound 3.16 µM, first compound 0.01 µM): 9.28%
- viability, T/C [17]: 5.9%
- viability, T/C [18]: 3.54%
- viability, T/C [19]: 2.55%
- viability, T/C [20]: 0.98%
- viability, T/C (second compound 10 µM, first compound 0.00316 µM): 32.5%
- viability, T/C (second compound 10 µM, first compound 0.01 µM): 9.81%
- viability, T/C [21]: 4.81%
- viability, T/C [22]: 2.88%
- viability, T/C [23]: 2.6%
- viability, T/C [24]: 1.04%

SMILES: COc1cc(C2c3cc4c(cc3C(OC3OC5COC(C)OC5C(O)C3O)C3COC(=O)C23)OCO4)cc(OC)c1O (stereo not drawn) + Nc1ccc(C#CCN(C(=O)Cc2ncc(C(F)(F)F)cc2C(F)(F)F)c2ccc(F)cc2)nn1
- IC50 (second compound 0.0316 µM): 193 nM
- IC50 (second compound 0.1 µM): 193 nM
- IC50 (second compound 0.316 µM): 194 nM
- IC50 (second compound 1 µM): 169 nM
- IC50 (second compound 3.16 µM): 175 nM
- IC50 (second compound 10 µM): 158 nM
- viability, T/C [1]: 93.4%
- viability, T/C [2]: 91.5%
- viability, T/C [3]: 19%
- viability, T/C [4]: 6.3%
- viability, T/C [25]: 4.79%
- viability, T/C [26]: 4.39%
- viability, T/C [5]: 106%
- viability, T/C [6]: 102%
- viability, T/C [7]: 11.6%
- viability, T/C [8]: 6.09%
- viability, T/C [27]: 4.34%
- viability, T/C [28]: 4.16%
- viability, T/C [9]: 107%
- viability, T/C [10]: 97.8%
- viability, T/C [11]: 14.4%
- viability, T/C [12]: 6.8%
- viability, T/C [29]: 5.09%
- viability, T/C [30]: 4.49%
- viability, T/C [13]: 106%
- viability, T/C [14]: 79.4%
- viability, T/C [15]: 15%
- viability, T/C [16]: 6.3%
- viability, T/C [31]: 4.91%
- viability, T/C [32]: 4.43%
- viability, T/C [17]: 119%
- viability, T/C [18]: 84.3%
- viability, T/C [19]: 13.4%
- viability, T/C [20]: 6.83%
- viability, T/C [33]: 4.94%
- viability, T/C [34]: 4.27%
- viability, T/C [21]: 103%
- viability, T/C [22]: 72.5%
- viability, T/C [23]: 16.2%
- viability, T/C [24]: 6.36%
- viability, T/C [35]: 4.59%
- viability, T/C [36]: 4.33%

SMILES: COc1cccc2c1C(=O)c1c(O)c3c(c(O)c1C2=O)CC(O)(C(=O)CO)CC3OC1CC(N)C(O)C(C)O1 (stereo not drawn) + Nc1ccc(C#CCN(C(=O)Cc2ncc(C(F)(F)F)cc2C(F)(F)F)c2ccc(F)cc2)nn1
- IC50 (second compound 0.0316 µM): 55.7 nM
- IC50 (second compound 0.1 µM): 54.6 nM
- IC50 (second compound 0.316 µM): 57.9 nM
- IC50 (second compound 1 µM): 50 nM
- IC50 (second compound 3.16 µM): 49.5 nM
- IC50 (second compound 10 µM): < 31.6 nM
- viability, T/C [1]: 81.1%
- viability, T/C [2]: 18%
- viability, T/C [3]: 4.33%
- viability, T/C [4]: 0.75%
- viability, T/C [25]: 1.29%
- viability, T/C [26]: 3.55%
- viability, T/C [5]: 80.9%
- viability, T/C [6]: 15.8%
- viability, T/C [7]: 3.25%
- viability, T/C [8]: 0.65%
- viability, T/C [27]: 0.93%
- viability, T/C [28]: 3.6%
- viability, T/C [9]: 80.6%
- viability, T/C [10]: 22.5%
- viability, T/C [11]: 3.28%
- viability, T/C [12]: 0.8%
- viability, T/C [29]: 1.04%
- viability, T/C [30]: 3.39%
- viability, T/C [13]: 76.9%
- viability, T/C [14]: 9.51%
- viability, T/C [15]: 3.66%
- viability, T/C [16]: 0.83%
- viability, T/C [31]: 1.07%
- viability, T/C [32]: 4.04%
- viability, T/C [17]: 73.7%
- viability, T/C [18]: 13%
- viability, T/C [19]: 4.28%
- viability, T/C [20]: 1.36%
- viability, T/C [33]: 1.16%
- viability, T/C [34]: 3.92%
- viability, T/C [21]: 49.4%
- viability, T/C [22]: 9.57%
- viability, T/C [23]: 4.23%
- viability, T/C [24]: 1.37%
- viability, T/C [35]: 1.54%
- viability, T/C [36]: 4.35%

SMILES: Nc1ccn(C2OC(CO)C(O)C2(F)F)c(=O)n1 (stereo not drawn) + Nc1ccc(C#CCN(C(=O)Cc2ncc(C(F)(F)F)cc2C(F)(F)F)c2ccc(F)cc2)nn1
- IC50 (second compound 0.0316 µM): < 31.6 nM
- IC50 (second compound 0.1 µM): < 31.6 nM
- IC50 (second compound 0.316 µM): < 31.6 nM
- IC50 (second compound 1 µM): < 31.6 nM
- IC50 (second compound 3.16 µM): < 31.6 nM
- IC50 (second compound 10 µM): < 31.6 nM
- viability, T/C [1]: 31.7%
- viability, T/C [2]: 6.95%
- viability, T/C [3]: 5.45%
- viability, T/C [4]: 4.21%
- viability, T/C [25]: 5.5%
- viability, T/C [26]: 4.63%
- viability, T/C [5]: 33.3%
- viability, T/C [6]: 7.84%
- viability, T/C [7]: 5.21%
- viability, T/C [8]: 4.26%
- viability, T/C [27]: 4.99%
- viability, T/C [28]: 4.24%
- viability, T/C [9]: 42.2%
- viability, T/C [10]: 6.2%
- viability, T/C [11]: 4.82%
- viability, T/C [12]: 3.94%
- viability, T/C [29]: 6.45%
- viability, T/C [30]: 4.74%
- viability, T/C [13]: 25.8%
- viability, T/C [14]: 6.29%
- viability, T/C [15]: 5.24%
- viability, T/C [16]: 5.68%
- viability, T/C [31]: 5.32%
- viability, T/C [32]: 5.07%
- viability, T/C [17]: 17.7%
- viability, T/C [18]: 6.56%
- viability, T/C [19]: 5.45%
- viability, T/C [20]: 5.13%
- viability, T/C [33]: 5.35%
- viability, T/C [34]: 5.11%
- viability, T/C [21]: 14.4%
- viability, T/C [22]: 6.3%
- viability, T/C [23]: 5.2%
- viability, T/C [24]: 4.36%
- viability, T/C [35]: 4.56%
- viability, T/C [36]: 4.89%
